# Test results taken from US8039505B2, “Compounds for modulating T-cells” (University of Utah Research Foundation, priority 2007, dated 2011).
# Entries after “also recorded” stand apart in the source; their conditions may differ.
# Columns and labels:
# [1] = tested on: T cells from the thymus of lck::eGFP transgenic zebrafish; assay: Screen for T cell ablation in lck::eGFP transgenic zebrafish larvae; assay type: in vivo
# Description: FIG. 4 is a schematic of the experimental set-up of drug screen using DIVERSet small molecule library and lck-GFP transgenic zebrafish. Beginning at the top of the figure, three day 6 pf transgenic larvae are arrayed in 300 μL of E3 embryos water into each of the 96 wells of a round bottom tissue culture plate (except G1, H1, G12, H12). Controls are added in triplicate: DMSO (A1-C1), E3 (D1-F1), dexamethasone 25 μM (A12-C12), and methanol (D12-F12). Then, five compounds from the DIVERSet library are added to each well at a final concentration of 5 μM. Plates are incubated at […] for 48 hours, and are inspected by fluorescence microscopy at 24 and 48 hours. […] Compounds from wells identified as active are tested individually in triplicates. One of the five compounds that is active in all three wells is identified and is worked up further (left side).
# To extend the versatility of the system, a transgenic line of zebrafish was generated; in this line all T cells are tagged with green fluorescent protein (GFP). GFP is driven by the T cell specific p56^lck promoter (Langenau et al., Proc Natl Acad Sci USA 101:7369-7374, 2004).
# Based on the above observation that zebrafish T cells can be killed by the small molecule dexamethasone (MW 392) (Langenau et al., Proc Natl Acad Sci USA 101:7369-7374, 2004) a screen for novel compounds with a similar T cell ablative profile was performed. […]
# [2] = tested on: cell cycle in zebrafish embryos; assay: Cell cycle profiles in zebrafish embryos (propidium iodide, flow cytometry); assay type: in vivo; conditions: zebrafish embryos incubated from 4 hours post fertilization overnight, DNA content by flow cytometry
# Description: FIG. 2 is a group of cell cycle profiles of active compounds tested in 24 hour zebrafish embryos. Specifically, embryos incubated with E3 fishwater (panel A), hydroxyurea (panel B), compound C4 (panel C), and compound C3 (panel D) are shown. After overnight incubation, single cell solution of embryos was prepared and incubated with propidium iodide. Samples were then subjected to flow cytometry to determine DNA content (X axis). Small arrowheads below the X-axis are placed beneath the diploid (G1) n=2 peak, and the tetraploid (G2/M) n=4 peaks. Cells between these two peaks are in S phase. Cells to the left of the G1 peak (sub G1 peak) have lost chromosomes (n<2), and are presumably dying (indicated as % debris in the right hand legend of each panel). Relative numbers of cells (Y-axis) in the different phases of the cell cycle are given on the right side of each panel.
# All of these compounds were tested for effects on the cell cycle in zebrafish embryos. Zebrafish embryos were incubated at 4 hours post fertilization with compounds or controls. After overnight incubation in compounds, single cell solution of embryos was prepared and incubated with propidium iodide. Samples were then subjected to flow cytometry to determine DNA content. […] Examples are depicted in FIG. 2.
# In FIG. 2, embryos incubated with (A) E3 fishwater, (B) hydroxyurea, (C) compound C4, and (D) C3 are shown. Diploid (G1, n=2) and tetraploid (G2/M, n=4) peaks are identified on the X-axis. Small arrowheads below the X-axis are placed beneath the dipoid (G1) n=2 peak, and the tetraploid (G2/M) n=4 peaks. Cells between these two peaks are in S phase. Cells to the left of the G1 peak (sub G1 peak) have lost chromosomes (n<2) and are presumably dying (indicated as % debris in the right hand legend of each panel). Relative numbers of cells (Y axis) in the different phases of the cell cycle are given on the right side of each panel.
# human T-ALL line Jurkat = assay: MTT cell viability, Jurkat; assay type: cell-based; conditions: 48 hours
# Description: (§1) FIG. 3 is a graph showing viability of human T-ALL lines incubated with individual compounds. Specifically, two human ALL lines (B-ALL: RS4; 11 and T-ALL: Jurkat) were incubated on day 0 with serum or with 2.5 μM of the indicated compounds (except for aphidicolin 1 μM and cyclosporine 1.5 μM). 48 hours later, cells were tested for viability by MTT test. Results from the mean of 3 to 4 experiments carried out in triplicate (individual dots) and the mean of all experiments (horizontal bar) are indicated. Results are shown for compounds without a cell cycle effect (B). Viability of untreated cells was arbitrarily set at 1.0.
# (§2) Cell culture experiments: Cells were incubated at 37° C. in 75 mL flasks in RPMI containing 10% FBS, 5 mL Penicillin/Streptomycin (100×) in a total volume of […]. Cells were counted using a hemocytometer, and 25,000 cells were plated in each well of a 96-well plate. Compounds and controls were added and cells were harvested after a 48 hr incubation period.
# (§3) To assess effects of compounds, cell viability was measured. […] After crystal solubilization with DMSO a blue color (that is proportional to the amount of crystal formed) can be measured. […] Final optical density (OD) obtained from formazan formation was calculated OD=L1-L2 (background). […]
# [3] = tested on: human B-ALL line RS 4; 11; assay: MTT cell viability, RS4;11; assay type: cell-based; conditions: RS4;11, 2.5 μM, 48 hours
# Description: as §1, §2, §3
# [4] = tested on: HEK293 human kidney cell line; assay: Cell viability, kidney cell line; assay type: cell-based
# Description: Experiments described in this document are carried out in zebrafish embryos (cell cycle experiments) and lck-GFP transgenic larvae (5 to 8 days after fertilization), and in human cell lines (Jurkat is a human T cell leukemia, RS4; 11 is a human B cell leukemia and HEK293 is a human kidney cell line).
# as §2
# To assess effects of compounds, cell viability was measured. For this, cells were incubated with MTT [3-(4,5-[…])-2,5 diphenyl Tetrazolium Bromid], a compound that is transformed into a formazan crystal by mitochondrial dehydrogenases. After crystal solubilization with DMSO a blue color (that is proportional to the amount of crystal formed) can be measured. Formazan solution absorbs light at 550-570 nm but not at 620-650 nm. 620-650 nm absorbency results from cell debris and well imperfections. Final optical density (OD) obtained from formazan formation was calculated OD=L1-L2 (background).
# Next, the nine compounds were tested for activity against the human T-ALL line: Jurkat and the human B-ALL line RS 4; 11. […]
# [5] = 14-day twice daily gavage in healthy CD-1 male mice; assay type: in vivo; conditions: gavage 50, 15 and 5 mg/kg twice per day, 14 days
# Description: Healthy CD-1 male mice were also gavage-fed with compound 3 at concentrations of 50 mg/kg, 15 mg/kg and 5 mg/kg twice per day. […] Hematological, biochemical, immunological and pathological specimen are currently being evaluated.
smiles,measurement,setting,value
"C(=NNc1cccc2cccnc12)c1c[nH]c2ccccc12 [Compound C3, 1H-indole-3-carbaldehyde quinolin-8-ylhydrazone]",Activity in vivo (active concentration),[1],3 µM
same,Effect on the cell cycle,[2],lack of cell cycle effects
same,Effect on the cell cycle,[2]; listed as 3,did not have any appreciable effect on the cell cycle; also recorded: does not affect the cell cycle
same,"Response of T cell leukemia line (viability, MTT)","human T-ALL line Jurkat; 2.5 μM, FIG. 3",responded similarly
same,Effective concentration killing Jurkat in vitro,human T-ALL line Jurkat; MTT,2.5 µM
same,"Effect on B-ALL line (viability, MTT)",[3],"neither the kidney cell line, nor the B-ALL were affected"
same,Effect on kidney cell line (viability),[4],"neither the kidney cell line, nor the B-ALL were affected"
same,Adverse effects,[5],No adverse effects were observed
